Active and inactive are the calls of the source.
How the values were obtained:
[1] = molecular target: T1, E3 ubiquitin-protein ligase XIAP (Homo sapiens, UniProt P98170); test: small molecules displacing peptide from XIAP – biochemical, IAP family, fluorescence polarization (AID 1018); type: functional
[2] = molecular target: T1, E3 ubiquitin-protein ligase XIAP; test: Counter Screen using XIAP-Bir3 for Chemical Antagonists of Bir1/2 domains of IAP-family anti-apoptotic proteins. [Related pubchem assays (depositor defined):AID1018, AID1449, AID1514, AID1638, AID1749, AID1750, AID488957, AID488963]
[3] = molecular target: Peroxisome proliferator-activated receptor gamma/Nuclear receptor corepressor 2 (Homo sapiens, UniProt P37231+Q9Y618); type: functional
[4] = molecular target: Photoreceptor-specific nuclear receptor (Homo sapiens, UniProt Q9Y5X4); type: functional;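 further: potency for compounds that break the NR2E3 corepressor complex and count as activators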
[5] = molecular target: Transitional endoplasmic reticulum ATPase (Homo sapiens, UniProt P55072); test: p97 ATPase inhibitors, dose response, biochemical (AID 1534)
[6] = molecular target: Transitional endoplasmic reticulum ATPase (Homo sapiens, UniProt P55072, C522A); test: C522A mutant p97 ATPase inhibitors, dose response, counter-screen for p97 inhibitor project, biochemical, luminescence (AID 1544)
[7] = molecular target: T2, Eukaryotic translation initiation factor 2-alpha kinase 3 (Homo sapiens, UniProt Q9NZJ5); test: Dose response cell-based high-throughput screening assay to measure PERK inhibition. [Related pubchem assays: 1416 ]; type: functional
[8] = molecular target: T2, Eukaryotic translation initiation factor 2-alpha kinase 3; test: Counterscreen assay for PERK inhibitors: Dose response cell-based high throughput screening assay to measure inhibition of PERK at 6 hours. [Related pubchem assays: 1522, 1416 ]; type: functional
[9] = alpha-synuclein stem-loop luciferase translation blockers – H4 neuroglioma cells, luminescence, confirmation (AID 1988); type: functional, cell-based
[10] = luciferase reporter signal reduction – luminescence, H4-C neuroglioblastoma cells, dose response (AID 2458); type: functional, cell-based;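 further: H4 neuroglioblastoma cells stably carrying a luciferase reporter gene fusion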
[11] = alpha-synuclein stem-loop translation blockers – luminescence, H4 neuroglioblastoma cells, dose confirmation, confirmation (AID 2454); type: functional, cell-based;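 further: H4 neuroglioblastoma cells carrying an alpha-synuclein 5'UTR luciferase reporter; potency for inhibition of the luciferase signal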
[12] = luciferase reporter signal suppression in cells – H4 neuroglioma cells, luminescence, dose response (AID 1990); type: functional, cell-based
cells = type: functional, cell-based
[13] = Luminescence Cell-Based Dose Retest to Confirm Inhibitors of Cancer Stem Cells. [Related pubchem assays (depositor defined):AID2717, AID2721]; type: functional; details: Homo sapiens
[14] = viability of PTEN-deleted HCT116 cells – cell-based, HCT116 PTEN knockout, dose response (AID 1047); type: functional;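 further: HCT116 colon tumor cells with PTEN knocked out; cells exposed to compound for 60 hours before readout; potency for loss of cell viability measured by luminescence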
[15] = molecular target: Neurotensin receptor type 1 (Homo sapiens, UniProt P30989); type: functional;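 further: Image-based confirmatory dose-response assay measuring agonist activity at NTR1; NTR1-expressing U2OS osteosarcoma cells imaged for beta-arrestin GFP spot formation; agonist potency where compounds increase beta-arrestin recruitment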
[16] = microbe, parasite or virus in culture; type: functional; details: Mycobacterium tuberculosis
[17] = viability of HCT116 lacking mutant beta-catenin – cell-based, human colon tumor, dose response (AID 1045); type: functional;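 further: HCT116 colon tumor cells with beta catenin knocked out; cells exposed to compound for 60 hours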
Chaperone protein dnaK = Chaperone protein dnaK (Escherichia coli, UniProt C3TRK2); test: E. coli DnaK binders, calorimetric Kd – biophysical, isothermal titration calorimetry, beta-domain, full-length DnaK, orthogonal assay for DnaK modulator project, SAR follow-up (AID 1495)
Cytochrome P450 2D6 = Cytochrome P450 2D6 (Homo sapiens, UniProt P10635); test: qHTS Assay for Inhibitors and Substrates of Cytochrome P450 2D6. [Related pubchem assays: 410 ]; type: ADME; details: read-out: Potency
[18] = molecular target: Heat shock 70 kDa protein 1A (Homo sapiens, UniProt P0DMV8); test: inhibition of Hsp70 binding activity – biochemical, fluorescence polarization, SAR follow-up (AID 1072)
[19] = molecular target: Heat shock cognate 71 kDa protein (Homo sapiens, UniProt P11142); test: In Vitro Hsc70 Dose Response Fluorescence Polarization Assay. [Related pubchem assays: 1072 ]
[20] = molecular target: Glyceraldehyde-3-phosphate dehydrogenase (Homo sapiens, UniProt P04406)
Staphylococcus aureus = test: Inhibitors of Bacterial Quorum Sensing Structure Activity Relationship (SAR) Analysis: Dose Response Assay. [Related pubchem assays: 700, 527 ]; type: functional, organism-based
[21] = molecular target: Polyadenylate-binding protein 1 (Homo sapiens, UniProt P11940); test: blockers of PABP interaction with poly(A) – biochemical, fluorescence polarization, […] (AID 2014)
[22] = molecular target: Eukaryotic translation initiation factor 4H (Homo sapiens, UniProt Q15056); test: eIF4H binding inhibition – biochemical, uHTS, fluorescence polarization, translation initiation inhibitor project, primary screen (AID 2012)
[23] = molecular target: DNA dC->dU-editing enzyme APOBEC-3G (Homo sapiens, UniProt Q9HC16); test: Dose Response confirmation of small molecule APOBEC3G DNA Deaminase Inhibitors via a fluorescence-based single-stranded DNA deaminase assay. [Related pubchem assays (depositor defined):AID493012, AID493028]; type: functional
[24] = molecular target: T3, RNA-binding protein pos-1 (Caenorhabditis elegans, UniProt G5EF15); test: disruptors of C. elegans POS-1 RNA interaction – biochemical, fluorescence polarization, dose response (AID 1964);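 further: purified POS-1 fused to maltose binding protein made in E. coli; potency of compounds blocking POS-1 binding to fluorescent RNA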
T3 sequence (G5EF15 whole entry): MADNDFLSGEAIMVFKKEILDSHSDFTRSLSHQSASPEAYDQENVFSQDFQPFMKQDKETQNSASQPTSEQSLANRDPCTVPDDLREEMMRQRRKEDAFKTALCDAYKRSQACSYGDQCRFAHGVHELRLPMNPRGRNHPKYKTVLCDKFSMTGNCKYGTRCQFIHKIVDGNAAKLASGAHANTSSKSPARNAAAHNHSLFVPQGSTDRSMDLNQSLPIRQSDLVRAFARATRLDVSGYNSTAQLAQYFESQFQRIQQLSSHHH

Beta-galactosidase = Beta-galactosidase (Escherichia coli, UniProt Q8VNN2); test: detection-enzyme interference by beta-gal modulators – biochemical, E. coli enzyme, set 3, artefact control for CCR6 antagonist project, dose response (AID 504712); type: functional
Perilipin-1/ABHD5 = Perilipin-1/ABHD5 (Homo sapiens, UniProt O60240+Q8WTS1); test: Luminescence-based biochemical high throughput dose response assay for inhibitors of the interaction of the lipase co-activator protein, abhydrolase domain containing 5 (ABHD5) with perilipin-1 (PLIN1) (2K validation set). [Related pubchem assays (depositor defined):AID493027, AID493057]
Hexokinase HKDC1 = Hexokinase HKDC1 (Homo sapiens, UniProt Q2TB90); test: inhibition of HKDC1 glucose phosphorylation – biochemical, W721R variant, dose response (AID 504729); type: functional
[25] = molecular target: 1-acylglycerol-3-phosphate O-acyltransferase ABHD5/Perilipin-5 (Homo sapiens, UniProt Q00G26+Q8WTS1); test: Luminescence-based biochemical high throughput dose response assay for inhibitors of the interaction of the lipase co-activator protein, abhydrolase domain containing 5 (ABHD5) with perilipin-5 (MLDP; PLIN5) (2K validation set). [Related pubchem assays (depositor defined):AID493035, AID493241]
[26] = molecular target: DNA dC->dU-editing enzyme APOBEC-3A (Homo sapiens, UniProt P31941); test: A3A deaminase inhibition for selectivity – biochemical, dose response (AID 504722); type: functional
[27] = molecular target: Induced myeloid leukemia cell differentiation protein Mcl-1 (Homo sapiens, UniProt Q07820); type: functional
[28] = molecular target: T4, Zinc finger protein mex-5 (Caenorhabditis elegans, UniProt Q9XUB2); test: potency of MEX-5 RNA-binding blockers – biochemical, C. elegans, fluorescence polarization, dose response (AID 1960)
T4 sequence (Q9XUB2 whole entry): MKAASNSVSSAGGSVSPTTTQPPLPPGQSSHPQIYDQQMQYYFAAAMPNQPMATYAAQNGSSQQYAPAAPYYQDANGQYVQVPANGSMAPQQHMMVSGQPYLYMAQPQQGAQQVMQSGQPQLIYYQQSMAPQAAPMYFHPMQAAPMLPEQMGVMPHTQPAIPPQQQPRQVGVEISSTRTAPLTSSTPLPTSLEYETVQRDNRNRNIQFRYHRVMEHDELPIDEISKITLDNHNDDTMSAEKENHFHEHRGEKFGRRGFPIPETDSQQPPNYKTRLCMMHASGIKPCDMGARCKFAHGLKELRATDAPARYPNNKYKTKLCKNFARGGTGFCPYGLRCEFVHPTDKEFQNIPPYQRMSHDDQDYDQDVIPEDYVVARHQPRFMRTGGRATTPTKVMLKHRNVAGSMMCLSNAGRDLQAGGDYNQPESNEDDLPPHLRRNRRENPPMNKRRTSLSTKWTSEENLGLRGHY

T1 sequence (P98170 whole entry): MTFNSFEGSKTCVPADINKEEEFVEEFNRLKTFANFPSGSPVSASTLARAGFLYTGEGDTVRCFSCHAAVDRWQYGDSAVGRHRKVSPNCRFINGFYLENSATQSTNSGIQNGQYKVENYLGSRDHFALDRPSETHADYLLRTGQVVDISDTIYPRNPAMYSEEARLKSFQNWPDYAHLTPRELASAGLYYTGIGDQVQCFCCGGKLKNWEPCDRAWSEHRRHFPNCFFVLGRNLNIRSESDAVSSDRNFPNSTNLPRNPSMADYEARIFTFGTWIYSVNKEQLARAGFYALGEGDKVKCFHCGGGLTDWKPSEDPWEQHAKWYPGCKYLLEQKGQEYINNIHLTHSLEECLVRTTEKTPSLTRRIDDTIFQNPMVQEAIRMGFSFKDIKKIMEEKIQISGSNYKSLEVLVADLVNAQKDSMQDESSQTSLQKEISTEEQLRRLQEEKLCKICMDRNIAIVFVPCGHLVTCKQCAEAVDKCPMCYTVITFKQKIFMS
T2 sequence (Q9NZJ5 whole entry): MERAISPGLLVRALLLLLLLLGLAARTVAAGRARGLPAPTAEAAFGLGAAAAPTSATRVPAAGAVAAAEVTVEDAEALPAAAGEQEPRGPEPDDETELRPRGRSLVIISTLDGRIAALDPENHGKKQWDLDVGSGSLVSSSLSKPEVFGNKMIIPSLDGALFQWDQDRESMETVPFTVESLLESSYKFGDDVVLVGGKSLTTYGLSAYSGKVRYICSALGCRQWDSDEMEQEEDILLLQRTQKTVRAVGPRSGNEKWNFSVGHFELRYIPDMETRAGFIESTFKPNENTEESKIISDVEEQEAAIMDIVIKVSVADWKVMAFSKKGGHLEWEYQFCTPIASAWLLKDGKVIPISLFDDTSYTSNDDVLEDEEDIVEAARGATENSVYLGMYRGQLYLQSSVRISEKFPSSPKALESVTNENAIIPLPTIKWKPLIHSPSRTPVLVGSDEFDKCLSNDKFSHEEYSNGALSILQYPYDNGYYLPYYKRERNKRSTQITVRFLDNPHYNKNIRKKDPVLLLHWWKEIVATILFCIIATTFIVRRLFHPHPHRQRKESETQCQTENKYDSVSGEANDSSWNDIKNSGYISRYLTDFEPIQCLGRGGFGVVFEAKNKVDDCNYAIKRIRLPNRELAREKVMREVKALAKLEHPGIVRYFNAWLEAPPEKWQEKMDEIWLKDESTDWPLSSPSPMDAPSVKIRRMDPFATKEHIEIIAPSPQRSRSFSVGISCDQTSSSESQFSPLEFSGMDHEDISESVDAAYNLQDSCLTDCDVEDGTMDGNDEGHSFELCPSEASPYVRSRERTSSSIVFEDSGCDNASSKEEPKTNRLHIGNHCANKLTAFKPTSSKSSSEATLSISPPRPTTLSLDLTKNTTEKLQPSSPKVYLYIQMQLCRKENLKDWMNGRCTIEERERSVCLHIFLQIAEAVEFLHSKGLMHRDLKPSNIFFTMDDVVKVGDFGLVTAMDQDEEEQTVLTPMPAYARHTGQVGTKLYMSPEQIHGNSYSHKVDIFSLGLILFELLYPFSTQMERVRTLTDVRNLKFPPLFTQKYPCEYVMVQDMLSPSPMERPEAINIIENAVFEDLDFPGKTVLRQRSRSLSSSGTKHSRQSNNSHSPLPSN
Chain of Neurotensin receptor type 1 (P30989 whole entry): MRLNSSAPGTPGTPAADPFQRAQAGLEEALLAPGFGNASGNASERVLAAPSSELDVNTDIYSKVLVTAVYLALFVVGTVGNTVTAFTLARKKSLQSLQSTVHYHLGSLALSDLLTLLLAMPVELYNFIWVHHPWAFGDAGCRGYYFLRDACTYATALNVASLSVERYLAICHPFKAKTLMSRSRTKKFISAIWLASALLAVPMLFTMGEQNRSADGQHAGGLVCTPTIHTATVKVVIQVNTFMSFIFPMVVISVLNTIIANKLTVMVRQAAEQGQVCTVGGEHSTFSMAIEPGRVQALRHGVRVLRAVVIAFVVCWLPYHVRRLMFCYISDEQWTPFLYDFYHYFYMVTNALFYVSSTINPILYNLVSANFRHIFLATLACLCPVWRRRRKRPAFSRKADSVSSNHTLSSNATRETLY
Chain of Heat shock 70 kDa protein 1A (P0DMV8 whole entry): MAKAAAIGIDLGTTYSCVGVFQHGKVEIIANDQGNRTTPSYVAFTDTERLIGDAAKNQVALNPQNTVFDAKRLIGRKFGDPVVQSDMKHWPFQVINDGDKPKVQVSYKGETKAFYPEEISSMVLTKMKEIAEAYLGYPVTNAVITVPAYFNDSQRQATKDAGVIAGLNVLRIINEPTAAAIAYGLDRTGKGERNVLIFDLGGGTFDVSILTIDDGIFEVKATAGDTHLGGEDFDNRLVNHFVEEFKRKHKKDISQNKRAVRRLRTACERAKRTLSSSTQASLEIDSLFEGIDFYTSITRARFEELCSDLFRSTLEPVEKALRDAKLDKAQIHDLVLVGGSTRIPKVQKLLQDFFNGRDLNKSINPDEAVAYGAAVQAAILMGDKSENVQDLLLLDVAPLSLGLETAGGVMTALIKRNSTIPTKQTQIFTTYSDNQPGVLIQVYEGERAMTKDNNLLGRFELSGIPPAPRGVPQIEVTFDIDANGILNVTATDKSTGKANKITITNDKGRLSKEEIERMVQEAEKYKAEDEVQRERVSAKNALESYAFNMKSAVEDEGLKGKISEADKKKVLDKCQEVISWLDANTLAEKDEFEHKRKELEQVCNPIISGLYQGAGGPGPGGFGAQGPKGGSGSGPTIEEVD
Chain of Perilipin-1/ABHD5 (Q8WTS1 whole entry, the tested form may be a part): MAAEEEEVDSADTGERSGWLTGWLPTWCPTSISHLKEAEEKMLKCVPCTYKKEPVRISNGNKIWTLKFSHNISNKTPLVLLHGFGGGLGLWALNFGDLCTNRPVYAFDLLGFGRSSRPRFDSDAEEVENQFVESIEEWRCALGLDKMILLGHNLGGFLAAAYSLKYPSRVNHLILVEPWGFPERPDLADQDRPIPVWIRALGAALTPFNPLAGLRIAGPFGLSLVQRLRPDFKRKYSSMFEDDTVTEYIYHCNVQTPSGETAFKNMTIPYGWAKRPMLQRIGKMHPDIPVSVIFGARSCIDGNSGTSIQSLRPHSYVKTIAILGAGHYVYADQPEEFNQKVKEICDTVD
Chain of Perilipin-1/ABHD5 (O60240 whole entry, the tested form may be a part): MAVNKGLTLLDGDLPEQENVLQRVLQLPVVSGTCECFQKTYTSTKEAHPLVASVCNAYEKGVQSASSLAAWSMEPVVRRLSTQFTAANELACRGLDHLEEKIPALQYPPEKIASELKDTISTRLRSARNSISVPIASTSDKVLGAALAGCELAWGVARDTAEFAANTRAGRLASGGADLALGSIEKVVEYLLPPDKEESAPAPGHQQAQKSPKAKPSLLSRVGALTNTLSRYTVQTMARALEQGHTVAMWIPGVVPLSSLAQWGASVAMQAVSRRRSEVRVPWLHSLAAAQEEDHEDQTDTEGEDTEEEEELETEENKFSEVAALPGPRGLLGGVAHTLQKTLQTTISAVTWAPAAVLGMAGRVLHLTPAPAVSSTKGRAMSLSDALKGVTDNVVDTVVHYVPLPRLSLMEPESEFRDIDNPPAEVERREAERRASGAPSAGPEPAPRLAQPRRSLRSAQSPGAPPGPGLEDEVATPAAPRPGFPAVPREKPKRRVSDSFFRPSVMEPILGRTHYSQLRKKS
Chain of Hexokinase HKDC1 (Q2TB90 whole entry, the tested form may be a part): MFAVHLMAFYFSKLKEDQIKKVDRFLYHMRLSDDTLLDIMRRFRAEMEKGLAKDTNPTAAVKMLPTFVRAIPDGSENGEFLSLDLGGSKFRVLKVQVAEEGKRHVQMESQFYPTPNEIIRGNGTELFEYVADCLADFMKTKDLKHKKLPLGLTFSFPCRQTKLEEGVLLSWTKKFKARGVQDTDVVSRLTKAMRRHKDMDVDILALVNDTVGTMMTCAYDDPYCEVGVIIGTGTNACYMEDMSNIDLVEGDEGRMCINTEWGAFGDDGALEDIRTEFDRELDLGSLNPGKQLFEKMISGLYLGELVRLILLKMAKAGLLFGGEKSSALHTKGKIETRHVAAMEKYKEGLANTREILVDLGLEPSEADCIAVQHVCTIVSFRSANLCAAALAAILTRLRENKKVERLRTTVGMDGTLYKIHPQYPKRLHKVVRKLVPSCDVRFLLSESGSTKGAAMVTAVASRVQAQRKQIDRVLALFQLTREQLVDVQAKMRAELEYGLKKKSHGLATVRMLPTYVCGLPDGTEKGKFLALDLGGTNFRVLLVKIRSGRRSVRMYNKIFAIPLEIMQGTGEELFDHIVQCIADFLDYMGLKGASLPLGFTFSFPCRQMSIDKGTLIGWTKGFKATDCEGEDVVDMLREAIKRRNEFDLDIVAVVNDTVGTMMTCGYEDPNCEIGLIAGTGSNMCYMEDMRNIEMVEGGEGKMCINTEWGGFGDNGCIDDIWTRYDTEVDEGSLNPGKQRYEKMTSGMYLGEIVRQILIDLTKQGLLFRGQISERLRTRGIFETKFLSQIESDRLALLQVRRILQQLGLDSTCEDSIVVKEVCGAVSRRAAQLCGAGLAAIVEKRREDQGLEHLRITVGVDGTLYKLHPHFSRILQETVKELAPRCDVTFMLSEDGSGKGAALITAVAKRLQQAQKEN
Chain of Photoreceptor-specific nuclear receptor (Q9Y5X4 whole entry): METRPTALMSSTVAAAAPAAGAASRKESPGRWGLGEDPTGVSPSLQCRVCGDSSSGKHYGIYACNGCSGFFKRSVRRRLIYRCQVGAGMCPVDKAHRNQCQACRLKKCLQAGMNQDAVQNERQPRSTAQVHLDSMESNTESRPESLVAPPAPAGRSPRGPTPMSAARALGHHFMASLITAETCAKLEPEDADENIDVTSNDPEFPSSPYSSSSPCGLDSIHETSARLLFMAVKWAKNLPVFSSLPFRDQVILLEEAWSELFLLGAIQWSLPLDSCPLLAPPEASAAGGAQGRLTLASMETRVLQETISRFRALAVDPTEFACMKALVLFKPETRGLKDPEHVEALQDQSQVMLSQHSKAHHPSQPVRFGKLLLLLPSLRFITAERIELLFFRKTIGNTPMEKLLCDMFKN

Cc1cccc(-n2c(=S)[nH]c3c(oc4ccccc43)c2=O)c1
IC50 [1]: > 100 µM (not active)
IC50 [2]: > 100 µM (inactive)
IC50 [3]: 6.64 µM (active)
IC50 [4]: 5.11 µM (active)

COC(=O)c1ccccc1NC(=S)NC(=O)c1ccccc1C
IC50 [5]: > 50 µM (not active)
IC50 [6]: > 50 µM (not active)

CCC(C(=O)Nc1cccc(C(=O)O)c1C)c1ccccc1 (stereo not given)
EC50 [7]: > 55.7 µM (not active)
EC50 [8]: > 55.7 µM (not active)

O=Cc1cn(Cc2ccc(F)cc2)c2ccccc12
EC50 [9]: < 0.1 µM (active)
EC50 [10]: 1.85 µM (active)
EC50 [11]: > 12 µM (inconclusive)
EC50 [12]: 7.56 µM (active)
EC50 (cells): 1.05 µM (active)

c1ccc(CN2CCC(Nc3nc(-c4ccccc4)nc4ccccc34)CC2)cc1
AC50 [13]: 5.72 µM (active)
EC50 [14]: 12.3 µM (active)
EC50 [15]: 19.6 µM (active)
CC50 [16]: 20.3 µM (active)
EC50 [17]: 9.69 µM (active)

O=C(NCc1cc(Cl)cc(Cl)c1)c1cccs1
Kd (Chaperone protein dnaK): 2.8 µM (active)

CCN1CCC[C@@H]1CNC(=O)c1cc(S(N)(=O)=O)ccc1OC
AC50 (Cytochrome P450 2D6): 39.8 µM (inconclusive)

O=C(Nc1ccc2c(c1)C1C=CCC1C(C(=O)O)N2)c1ccc(Cl)cc1Cl (stereo not given)
IC50 [18]: > 100 µM (not active)
IC50 [19]: > 100 µM (not active)
IC50 [20]: > 100 µM (not active)

O=C(Nc1ccc2c(c1)OCO2)C(c1ccccc1)N1CCCCC1 (stereo not given)
IC50 (Staphylococcus aureus): 1.26 µM (active)

CC(C)C(OC(=O)c1ccco1)C(=O)NCc1ccco1 (stereo not given)
IC50 [21]: > 100 µM (inactive)
IC50 [22]: 58 µM (active)

O=C1C=CC(=O)C(C2=C3C(=O)N(CCc4ccccc4)CC(=O)N3CCC2)=C1
IC50 [23]: 8.15 µM (active)
EC50 [24]: 45.9 µM (active)
IC50 (Beta-galactosidase): > 66.6 µM (inactive)
IC50 (Perilipin-1/ABHD5): 4.37 µM (active)
IC50 (Hexokinase HKDC1): 3.73 µM (active)
IC50 [25]: 5.72 µM (active)
IC50 [26]: > 100 µM (inactive)
IC50 [27]: 4.75 µM (not active)
EC50 [28]: 14.9 µM (inconclusive)

Source: ChEMBL document CHEMBL1201862, “PubChem BioAssay data set” (2004)
